# Patent US20100062073A1, “PHARMACEUTICAL COMPOSITIONS COMPRISING NANOPARTICLES COMPRISING ENTERIC POLYMERS CASEIN” (priority 2006, published 2010)
# Assay: Solubility of drug in PBS
# Assay type: physicochemical
# Settings: phosphate buffered saline (PBS), pH 6.5, aqueous buffer
# Protocol: At a pH of greater than about 5, the enteric polymer is aqueous soluble. By “aqueous soluble” is meant that when the polymer is administered alone at a solids concentration of 0.2 mg/mL to a phosphate buffered saline (PBS) solution consisting of an aqueous solution of 20 mM sodium phosphate (Na2HPO4), 47 mM potassium phosphate (KH2PO4), 87 mM NaCl, and 0.2 mM KCl, adjusted to pH 6.5 with NaOH, the polymer has a solubility of greater than 0.1 mg/mL.
# The Tm of Drug 1 is 10° C., and the Tg was determined by DSC analysis to be −16° C.
smiles,measurement,value
"CCc1cc(Oc2cccc(N(Cc3cccc(OC(F)(F)C(F)F)c3)C[C@@H](O)C(F)(F)F)c2)ccc1Cl [Drug 1, (2R)-3-[[3-(4-chloro-3-ethylphenoxy)phenyl][[3-(1,1,2,2-tetrafluoroethoxy)phenyl]methyl]amino]-1,1,1-trifluoro-2-propanol]",solubility,< 0.1 µg/mL
